Test results reported in PubChem BioAssay AID2060907 (Molecular Pharmacology Branch, DTP, NCI, 2025).

Test system: 388556-164-R-J1-PDC complex spheroid viability
Assay: Anticancer human tumor 388556-164-R-J1-PDC patient-derived colon adenocarcinoma cell line growth inhibition [RAS]
Settings: for IC50: curve of first compound; for viability, T/C: stronger effect = lower value; active = viability on the fitted dose curve at most 10% of control; inactive = the rest
Source text: RAS pathway inhibitors in Combinations in Complex Spheroids
A high-throughput screen of multi-cell type tumor spheroids was designed to identify active combinations of RAS pathway inhibitors and targeted small molecules. Complex spheroids include a stromal component modeled by human endothelial cells (HUVEC) and fibroblasts modeled by human mesenchymal stem cells (MSCs). The concentration ranges selected for each drug and investigational agent were based upon clinically achievable concentrations if the clinical Cmax of the agent was known.
Compounds. The drugs and investigational agents: abemaciclib (NSC768073), cobimetinib (NSC768068), divarasib (GDC6063, NSC841802), docetaxel (NSC628503), GDC-1971 (RLY-1971, NSC841576), gemcitabine (NSC613327), inavolisib (NSC800729), ipatasertib (NSC767898), KB-0742 (NSC834161), MRTX-1133 (NSC836407), osimertinib (NSC779217), RMC-4630 (NSC839698), RMC-6236 (NSC851965), RMC-6291 (NSC852671), Ro-3306 (NSC812927), sapanisertib (NSC764658), SN-38 (NSC673596), staurosporine (NSC755774), SY5609 (NSC837396), and tovorafenib (DAY101, NSC766906), were obtained from the National Cancer Institute (NCI) Developmental Therapeutics Program Chemical Repository. The FDA-approved anticancer drug set is available from the NCI Developmental Therapeutics Program. […] The stock solutions were prepared in dimethyl sulfoxide (DMSO, Sigma-Aldrich, St. Louis, MO, cat. D2650) at 800-fold the tested concentration and stored at -70 degrees C prior to their use. All drugs and investigational agents were tested over a range starting from a high concentration at or near the clinical Cmax and decreasing in half-log increments. If the clinical Cmax for an agent had not been determined, the highest concentration tested was 10 microM.
Cell Culture. All cells were maintained in an incubator at 37 degrees C and 5% CO2 with 95% humidity. The PDC lines were cultured according to standard operating procedures established by the NCI PDMR. All PDCs were thawed and cultured in Matrigel-coated flasks prepared with a working solution of 1X Ham's F-12 nutrient mix, without supplementation (Invitrogen, Waltham, MA, cat. 11765054), 100 U/mL penicillin-streptomycin (Invitrogen, cat. 15140122), and 2.5% Matrigel (Corning Inc., Corning, NY, cat. 354248) for the first three passages. The 362531-283-R-J2-PDC and 782815-120-R-J1-PDC lines were cultured in 6C/Colon 1B media, which includes advanced DMEM/F-12 (Thermo Fisher Scientific, cat. 12634028), 10 mM HEPES (Thermo Fisher Scientific, cat. 15630080), 1X GlutaMAX supplement (Thermo Fisher Scientific, cat. 35050061), 0.1 mg/mL primocin (InvivoGen, San Diego, CA, cat. ant-pm-2), 10% defined fetal bovine serum, heat inactivated (HyClone Laboratories Inc., Logan, UT, cat. SH30070.03HI), 50% L-WRN conditioned media (ATCC, cat. CRL-3276), 1.25 mM N-Acetyl-L-cysteine (Sigma-Aldrich, cat. A9165), 10 mM nicotinamide (Sigma-Aldrich, cat. N0636), 1X B-27 supplement (Thermo Fisher Scientific, cat. 17504044), 1X N-2 supplement (Thermo Fisher Scientific, cat. 17502048), 50 ng/mL human EGF (Thermo Fisher Scientific, cat. PHG0311), and 10 microM Y-27632 dihydrochloride (Tocris Bioscience, cat. 1254). The K12877-001-R-J1-PDC line was cultured in 6I media, which includes all 6C/Colon 1B media plus 10 ng/mL human FGF-10 (PeproTech, cat. 100-26), 1 ng/mL human FGF-2 (PeproTech, cat. 100-18B), 1 µM prostaglandin E2 (Tocris Bioscience, cat. 2296), […] hydrocortisone (Sigma-Aldrich, cat. H4001), and […] bovine insulin (Sigma-Aldrich, cat. I6634). The K86415-001-R-J1-PDC line was cultured in 6D media, which includes all 6C/Colon 1B media components minus the L-WRN conditioned media. The 485176-168-R4-J1-PDC was cultured in PANC media, which includes all 6C/Colon 1B media plus 100 ng/mL human FGF-10 (PeproTech, cat. 100-26), 500 nM SB-431542 (Selleckchem, cat. S1067), and 10 nM gastrin (Tocris Bioscience, cat. 3006). […]

[1] = second compound 0.0316 µM, first compound 0.0316 µM
[2] = second compound 0.0316 µM, first compound 0.1 µM
[3] = second compound 0.1 µM, first compound 0.0316 µM
[4] = second compound 0.1 µM, first compound 0.1 µM
[5] = second compound 0.316 µM, first compound 0.0316 µM
[6] = second compound 0.316 µM, first compound 0.1 µM
[7] = second compound 1 µM, first compound 0.0316 µM
[8] = second compound 1 µM, first compound 0.1 µM
[9] = second compound 3.16 µM, first compound 0.0316 µM
[10] = second compound 3.16 µM, first compound 0.1 µM
[11] = second compound 10 µM, first compound 0.0316 µM
[12] = second compound 10 µM, first compound 0.1 µM
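Note: spheroids exposed to compound for 7 days before readout.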
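Throughout, for viability, T/C: 100% = DMSO vehicle control luminescence.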

CC(C)n1nc(-c2ccc3oc(N)nc3c2)c2c(N)ncnc21 + C#Cc1c(F)ccc2cc(O)cc(-c3ncc4c(N5CC6CCC(C5)N6)nc(OCC56CCCN5CC(F)C6)nc4c3F)c12
48.7 nM: IC50 (second compound 0.316 µM)
10.6 nM: IC50 (second compound 10 µM)
inactive: viability, T/C (second compound 0.0316 µM, first compound 0.000316 µM) 98.6% | viability, T/C (second compound 0.0316 µM, first compound 0.001 µM) 97.7% | viability, T/C (second compound 0.0316 µM, first compound 0.00316 µM) 89.9% | viability, T/C (second compound 0.0316 µM, first compound 0.01 µM) 75.7% | viability, T/C [1] 64% | viability, T/C [2] 49.4% | viability, T/C (second compound 0.1 µM, first compound 0.000316 µM) 95.7% | viability, T/C (second compound 0.1 µM, first compound 0.001 µM) 99.7% | viability, T/C (second compound 0.1 µM, first compound 0.00316 µM) 90.6% | viability, T/C (second compound 0.1 µM, first compound 0.01 µM) 78.5% | viability, T/C [3] 62.6% | viability, T/C [4] 46.6% | viability, T/C (second compound 0.316 µM, first compound 0.000316 µM) 91.6% | viability, T/C (second compound 0.316 µM, first compound 0.001 µM) 97.1% | viability, T/C (second compound 0.316 µM, first compound 0.00316 µM) 79.5% | viability, T/C (second compound 0.316 µM, first compound 0.01 µM) 79.5% | viability, T/C [5] 56% | viability, T/C [6] 37.8% | viability, T/C (second compound 1 µM, first compound 0.000316 µM) 90.5% | viability, T/C (second compound 1 µM, first compound 0.001 µM) 88% | viability, T/C (second compound 1 µM, first compound 0.00316 µM) 69.9% | viability, T/C (second compound 1 µM, first compound 0.01 µM) 71.5% | viability, T/C [7] 55.6% | viability, T/C [8] 35.5% | viability, T/C (second compound 3.16 µM, first compound 0.000316 µM) 82.2% | viability, T/C (second compound 3.16 µM, first compound 0.001 µM) 74.4% | viability, T/C (second compound 3.16 µM, first compound 0.00316 µM) 68.5% | viability, T/C (second compound 3.16 µM, first compound 0.01 µM) 73.5% | viability, T/C [9] 52.3% | viability, T/C [10] 31.4% | viability, T/C (second compound 10 µM, first compound 0.000316 µM) 74.6% | viability, T/C (second compound 10 µM, first compound 0.001 µM) 59.9% | viability, T/C (second compound 10 µM, first compound 0.00316 µM) 60.1% | viability, T/C (second compound 10 µM, first compound 0.01 µM) 53.3% | viability, T/C [11] 40.3% | viability, T/C [12] 29.9%
98.5 nM: IC50 (second compound 0.0316 µM)
78.5 nM: IC50 (second compound 0.1 µM)
39.2 nM: IC50 (second compound 3.16 µM)
41.6 nM: IC50 (second compound 1 µM)

C[C@@H](NC(=O)c1ncnc(N)c1Cl)c1ncc(C(=O)Nc2cc(C(F)(F)F)c(Cl)cn2)s1 + C#Cc1c(F)ccc2cc(O)cc(-c3ncc4c(N5CC6CCC(C5)N6)nc(OCC56CCCN5CC(F)C6)nc4c3F)c12
> 10000 nM: IC50 (second compound 0.0316 µM) | IC50 (second compound 0.1 µM) | IC50 (second compound 0.316 µM) | IC50 (second compound 1 µM) | IC50 (second compound 3.16 µM) | IC50 (second compound 10 µM)
inactive: viability, T/C [1] 112% | viability, T/C [2] 124% | viability, T/C (second compound 0.0316 µM, first compound 0.316 µM) 117% | viability, T/C (second compound 0.0316 µM, first compound 1 µM) 116% | viability, T/C (second compound 0.0316 µM, first compound 3.16 µM) 116% | viability, T/C (second compound 0.0316 µM, first compound 10 µM) 111% | viability, T/C [3] 114% | viability, T/C [4] 112% | viability, T/C (second compound 0.1 µM, first compound 0.316 µM) 120% | viability, T/C (second compound 0.1 µM, first compound 1 µM) 113% | viability, T/C (second compound 0.1 µM, first compound 3.16 µM) 122% | viability, T/C (second compound 0.1 µM, first compound 10 µM) 108% | viability, T/C [5] 113% | viability, T/C [6] 115% | viability, T/C (second compound 0.316 µM, first compound 0.316 µM) 101% | viability, T/C (second compound 0.316 µM, first compound 1 µM) 117% | viability, T/C (second compound 0.316 µM, first compound 3.16 µM) 112% | viability, T/C (second compound 0.316 µM, first compound 10 µM) 77.1% | viability, T/C [7] 105% | viability, T/C [8] 104% | viability, T/C (second compound 1 µM, first compound 0.316 µM) 98.2% | viability, T/C (second compound 1 µM, first compound 1 µM) 111% | viability, T/C (second compound 1 µM, first compound 3.16 µM) 108% | viability, T/C (second compound 1 µM, first compound 10 µM) 79.2% | viability, T/C [9] 103% | viability, T/C [10] 84% | viability, T/C (second compound 3.16 µM, first compound 0.316 µM) 84% | viability, T/C (second compound 3.16 µM, first compound 1 µM) 105% | viability, T/C (second compound 3.16 µM, first compound 3.16 µM) 96.5% | viability, T/C (second compound 3.16 µM, first compound 10 µM) 70% | viability, T/C [11] 74% | viability, T/C [12] 80.4% | viability, T/C (second compound 10 µM, first compound 0.316 µM) 72.8% | viability, T/C (second compound 10 µM, first compound 1 µM) 96% | viability, T/C (second compound 10 µM, first compound 3.16 µM) 63.9% | viability, T/C (second compound 10 µM, first compound 10 µM) 74.2%
